Laboratory results published in patent US9029593B2, “Method for manufacturing spilanthol and intermediate manufacturing product therefor” (Takasago International Corporation, priority 2009, dated 2015).
“Also recorded” adds a separate entry of the source.

Columns and labels:
[1] = Sensory evaluation of aqueous solutions containing 10 ppm of N-isobutyl-2,6,8-decatrienamide; format: in vivo; conditions: aqueous solution containing 10 ppm
Procedure: The sensory evaluation was performed using aqueous solutions respectively containing 10 ppm of N-isobutyl-2,6,8-decatrienamide obtained in Example 2 and Comparative Example 1.

[2] = Thermal stability evaluation of crude product at 180° C. (GC, hexadecane internal standard); format: physicochemical; conditions: crude product before distillation, stirring at 180° C. in a stream of nitrogen, after 3 hours, GC area ratio vs hexadecane
Procedure: The crude product of N-isobutyl-2,6,8-decatrienamide obtained in Example 2 before the distillation and the crude product obtained in Comparative Example 1 were compared as follows in terms of thermal stability at 180° C. assuming distillation at high temperature.
In a stream of nitrogen, 1 g of each of the crude products was put into a flask together with 0.1 g of hexadecane as an internal standard substance, followed by stirring at 180° C. for […]. By gas chromatography, the area ratio of N-isobutyl-2,6,8-decatrienamide was compared with the area ratio of the internal standard substance to measure the remaining percentage of N-isobutyl-2,6,8-decatrienamide.

| SMILES | Sensory evaluation (numbing and astringent actions) [1] | remaining percentage of N-isobutyl-2,6,8-decatrienamide [2] |
| --- | --- | --- |
| CC=CC=CCC/C=C/C(=O)NCC(C)C (racemic) [Example 2, N-isobutyl-2,6,8-decatrienamide] | excellent numbing and astringent actions; also recorded: clear and strong | 98% |
| CC=CC=CCCC=CC(=O)NCC(C)C [Comparative Example 1, N-isobutyl-2,6,8-decatrienamide, reference compound] |  | 89% |
